Data reported in ChEMBL document CHEMBL3232945 (Eur J Med Chem, 2014).

Experiments:
Rattus norvegicus [1] = test: Toxicity in […] normotensive Wistar rat assessed as mean arterial pressure at 10 mg/kg, ip after 60 mins (reference value: 95.07 +/- 1.973 mmHg); type: organism-based, Artery; design: dose 10 mg/kg, route intraperitoneal; conditions: in vivo, 1 h
Rattus norvegicus [2] = test: Toxicity in […] normotensive Wistar rat assessed as mean arterial pressure at 10 mg/kg, ip after 15 mins (reference value: 93.81 +/- 1.543 mmHg); type: organism-based, Artery; design: dose 10 mg/kg, route intraperitoneal; conditions: in vivo, 0.25 h
Rattus norvegicus [3] = test: Toxicity in […] normotensive Wistar rat assessed as mean arterial pressure at 10 mg/kg, ip after 30 mins (reference value: 94.68 +/- 1.213 mmHg); type: organism-based, Artery; design: dose 10 mg/kg, route intraperitoneal; conditions: in vivo, 0.5 h
Rattus norvegicus [4] = test: Toxicity in […] normotensive Wistar rat assessed as mean arterial pressure at 10 mg/kg, ip after 45 mins (reference value: 94.83 +/- 0.943 mmHg); type: organism-based, Artery; design: dose 10 mg/kg, route intraperitoneal; conditions: in vivo, 0.75 h
Rattus norvegicus [5] = test: Antihypertensive activity in Wistar rat assessed as mean arterial pressure at 10 mg/kg, ip measured immediately at 60 mins (reference value: 195.11 +/- 0.531 mmHg); type: functional, Artery; conditions: route intraperitoneal
Rattus norvegicus [6] = test: Antihypertensive activity in Wistar rat assessed as mean arterial pressure at 10 mg/kg, ip measured immediately at 30 mins (reference value: 194.72 +/- 1.002 mmHg); type: functional, Artery; conditions: route intraperitoneal
Rattus norvegicus [7] = test: Antihypertensive activity in Wistar rat assessed as mean arterial pressure at 10 mg/kg, ip measured immediately at 0 min (reference value: 194.08 +/- 1.962 mmHg); type: functional, Artery; conditions: route intraperitoneal
Rattus norvegicus [8] = test: Antihypertensive activity in Wistar rat assessed as mean arterial pressure at 10 mg/kg, ip measured immediately at 15 mins (reference value: 195.68 +/- 1.623 mmHg); type: functional, Artery; conditions: route intraperitoneal
Rattus norvegicus [9] = test: Antihypertensive activity in Wistar rat assessed as mean arterial pressure at 10 mg/kg, ip measured immediately at 45 mins (reference value: 193.96 +/- 0.865 mmHg); type: functional, Artery; conditions: route intraperitoneal
Rattus norvegicus [10] = test: Toxicity in […] normotensive Wistar rat assessed as mean arterial pressure at 10 mg/kg, ip measured immediately at 0 min (reference value: 94.21 +/- 2.065 mmHg); type: organism-based, Artery; design: dose 10 mg/kg, route intraperitoneal; conditions: in vivo, 0 h
Rattus norvegicus [11] = test: Toxicity in anaesthetized-Wistar rat assessed as Q-T ECG interval at 15 mg/kg, ip after 60 mins (reference value: 79.7 +/- 0.965 ms); type: organism-based; design: dose 15 mg/kg, route intraperitoneal; conditions: in vivo, 1 h
Rattus norvegicus [12] = test: Toxicity in anesthetized-normotensive Wistar rat assessed as heart rate at 15 mg/kg, ip after 15 mins (reference value: 313.93 +/- 9.912 bpm); type: organism-based; design: dose 15 mg/kg, route intraperitoneal; conditions: in vivo, 0.25 h
Rattus norvegicus [13] = test: Toxicity in anaesthetized-Wistar rat assessed as Q-T ECG interval at 15 mg/kg, ip after 45 mins (reference value: 78.8 +/- 0.927 ms); type: organism-based; design: dose 15 mg/kg, route intraperitoneal; conditions: in vivo, 0.75 h
Rattus norvegicus [14] = test: Antiarrhythmic activity in barium chloride-induced Wistar rat assessed as increase in mortality time at 15 mg/kg, ip administered 60 mins before barium chloride challenge (reference value: 682.8 +/- 9.656 secs); type: functional, Heart; conditions: route intraperitoneal
Rattus norvegicus [15] = test: Toxicity in anesthetized-normotensive Wistar rat assessed as heart rate at 15 mg/kg, ip after 60 mins (reference value: 314.96 +/- 9.442 bpm); type: organism-based; design: dose 15 mg/kg, route intraperitoneal; conditions: in vivo, 1 h
Rattus norvegicus [16] = test: Toxicity in anesthetized-normotensive Wistar rat assessed as heart rate at 15 mg/kg, ip after 30 mins (reference value: 317.68 +/- 7.631 bpm); type: organism-based; design: dose 15 mg/kg, route intraperitoneal; conditions: in vivo, 0.5 h
Rattus norvegicus [17] = test: Antiarrhythmic activity in barium chloride-induced Wistar rat assessed as increase in appearance time of arrhythmia at 15 mg/kg, ip administered 60 mins before barium chloride challenge (reference value: 129.4 +/- 4.373 sec); type: functional, Heart; conditions: route intraperitoneal
Rattus norvegicus [18] = test: Toxicity in anesthetized-normotensive Wistar rat assessed as heart rate at 15 mg/kg, ip measured immediately at 0 min (reference value: 316.62 +/- 9.643 bpm); type: organism-based; design: dose 15 mg/kg, route intraperitoneal; conditions: in vivo, 0 h

Structure (SMILES) | Activity (Rattus norvegicus [1]) [mmHg] | Activity (Rattus norvegicus [2]) [mmHg] | Activity (Rattus norvegicus [3]) [mmHg] | Activity (Rattus norvegicus [4]) [mmHg] | Activity (Rattus norvegicus [5]) [mmHg] | Activity (Rattus norvegicus [6]) [mmHg] | Activity (Rattus norvegicus [7]) [mmHg] | Activity (Rattus norvegicus [8]) [mmHg] | Activity (Rattus norvegicus [9]) [mmHg] | Activity (Rattus norvegicus [10]) [mmHg] | Activity (Rattus norvegicus [11]) [ms] | Activity (Rattus norvegicus [12]) [bpm] | Activity (Rattus norvegicus [13]) [min] | Time (Rattus norvegicus [14]) [s] | Activity (Rattus norvegicus [15]) [bpm] | Activity (Rattus norvegicus [16]) [bpm] | Time (Rattus norvegicus [17]) [s] | Activity (Rattus norvegicus [18]) [bpm]
CC(C)NCC(O)COc1cccc2ccccc12 (stereo not drawn) [PROPRANOLOL] | 70.21 | 79.43 | 62.96 | 65.87 | 152.26 | 148.53 | 195.12 | 171.73 | 120.32 | 92.56 |  |  |  |  |  |  |  | 
C=C[C@H]1CN2CC[C@H]1C[C@@H]2[C@@H](O)c1ccnc2ccc(OC)cc12 [QUINIDINE] |  |  |  |  |  |  |  |  |  |  | 90.6 | 285.16 | 91.3 | 1281.8 | 286.32 | 246.18 | 394.8 | 311.8
